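Growth conditions: 96-well plates. Treatment: test compound, 48 hours, 5 concentrations. Analysis: linear interpolation between bracketing concentrations; unreached endpoints set to highest concentration. Abbreviation: GI50, concentration required for 50% inhibition of growth.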 Activity calls are given as the source filed them. Cut-off read from the data, not from the text of the source: active = GI50 up to about 1.1 µM and inactive = higher.

The values that follow come from ChEMBL document CHEMBL1201862, “PubChem BioAssay data set” (2004).

Some test systems named below: IGROV-1; MDA-MB-231; PC-3; OVCAR-5; NCI-H226; UACC-62; Malme-3M; SNB-19; UACC-257; HCT-15; DU-145; BT-549; U-251; COLO 205; MCF7; SK-MEL-5; SN12C; HCC 2998; NCI-H460; SR.
Holding throughout (test): growth of human tumour cells (NCI), 48 h

Consider `CC(C)(C)C(=O)N(C(=S)OCc1ccccn1)c1ccccc1`, for which the GI50 in the experiment with IGROV-1 is 19.9 µM (inactive); with MDA-MB-231, 31 µM (inactive); in the experiment with PC-3 it was 35.2 µM (inactive); with OVCAR-5, 32.4 µM (inactive); in the experiment with NCI-H226 it was 67.8 µM (inactive); in the experiment on UACC-62, 63 µM (inactive). Further, the GI50 with Malme-3M was 13.8 µM (inactive); in the experiment with SNB-19, 59.6 µM (inactive); in the experiment on UACC-257, > 100 µM (inactive); in the experiment on HCT-15, 30.1 µM; in the experiment on DU-145, 38.6 µM (inactive); in the experiment with BT-549, 42.1 µM (inactive). Moreover, the GI50 is 42 µM (inactive) in the experiment on U-251; 21.8 µM (inactive) in the experiment with COLO 205; 19.8 µM (inactive) in the experiment with MCF7; 20 µM (inactive) in the experiment on SK-MEL-5; 31.3 µM (inactive) in the experiment with SN12C.

On to `NCc1ccc(C(=O)O)cc1` [AMINOMETHYLBENZOIC ACID], for which the GI50 in the experiment with IGROV-1, in the experiment with HCC 2998, with MDA-MB-231, in the experiment on PC-3, in the experiment on OVCAR-5 and in the experiment with NCI-H460 was > 100 µM (inactive) in each case. Also, the GI50 with NCI-H226 is > 100 µM (inactive); in the experiment on UACC-62 it was > 100 µM (inactive); in the experiment on Malme-3M it was > 100 µM (inactive); in the experiment with SNB-19 it was > 100 µM (inactive); with UACC-257 it was > 100 µM (inactive); in the experiment on HCT-15 it was over 100 µM. Moreover, the GI50 in the experiment with DU-145, in the experiment with BT-549, in the experiment with U-251, in the experiment with SR, in the experiment on SK-MEL-5 and with SN12C was > 100 µM (inactive) each time.

On to `O=c1/c(=C\c2ccccc2)sc2n1C(c1ccccc1)C1(O)CCCCC1N=2` (stereo unspecified), for which the GI50 in the experiment on IGROV-1 is > 100 µM (inactive); with HCC 2998 it was 67.1 µM (inactive); in the experiment with MDA-MB-231, 95.7 µM (inactive); in the experiment on PC-3, 69.7 µM (inactive); with OVCAR-5 it was > 100 µM (inactive); with NCI-H460 it was 90.2 µM (inactive). Besides, the GI50 is > 100 µM (inactive) in the experiment with NCI-H226; > 100 µM (inactive) with UACC-62; > 100 µM (inactive) in the experiment with Malme-3M; > 100 µM (inactive) in the experiment with SNB-19; > 100 µM (inactive) in the experiment with UACC-257; over 100 µM with HCT-15. In addition, the GI50 in the experiment on BT-549 was > 100 µM (inactive); with U-251, > 100 µM (inactive); in the experiment with MCF7 it was 43.7 µM (inactive); in the experiment on SR, 62.5 µM (inactive); in the experiment on SK-MEL-5, > 100 µM (inactive); in the experiment on SN12C, > 100 µM (inactive).

For the compound `CC(=O)c1[nH]c(Nc2ccc(C)cc2)c(C(=S)Nc2ccccc2)c1N`, the GI50 in the experiment on IGROV-1 was 16.8 µM (inactive); in the experiment on HCC 2998 it was 18.6 µM (inactive); in the experiment on MDA-MB-231 it was 16.5 µM (inactive); in the experiment with OVCAR-5, 32.9 µM (inactive); in the experiment with NCI-H460 it was 15.7 µM (inactive); with NCI-H226, 14.4 µM (inactive). In addition, the GI50 with UACC-62 was 16.2 µM (inactive); with Malme-3M it was 17.1 µM (inactive); in the experiment with SNB-19 it was 16.8 µM (inactive); in the experiment on UACC-257 it was 18.5 µM (inactive); with HCT-15, 18.3 µM; in the experiment with DU-145, 16.3 µM (inactive). For the same compound, the GI50 is 15.6 µM (inactive) in the experiment on BT-549; 14.4 µM (inactive) in the experiment with U-251; 23.9 µM (inactive) in the experiment on COLO 205; 15.7 µM (inactive) in the experiment on MCF7; 22.3 µM (inactive) with SR; 15.6 µM (inactive) in the experiment on SK-MEL-5. Also, the GI50 with SN12C was 18.8 µM (inactive).

Consider `N#Cc1c(-c2ccc(Cl)cc2)c(C#N)c(=O)n(NS(=O)(=O)c2ccccc2)c1O`, for which the GI50 was 24.2 µM (inactive) in the experiment on IGROV-1; 13.8 µM (inactive) in the experiment on HCC 2998; 23.3 µM (inactive) in the experiment with MDA-MB-231; 19.6 µM (inactive) in the experiment on PC-3; 31 µM (inactive) in the experiment on OVCAR-5; 19.9 µM (inactive) in the experiment on NCI-H460. In addition, the GI50 was 28.2 µM (inactive) in the experiment with NCI-H226; 15.1 µM (inactive) with UACC-62; 49 µM (inactive) in the experiment on Malme-3M; 37 µM (inactive) in the experiment with SNB-19; 27.7 µM (inactive) in the experiment with UACC-257; 22.3 µM in the experiment on HCT-15. For the same compound, the GI50 in the experiment on BT-549 was 13.4 µM (inactive); in the experiment with U-251 it was 32.7 µM (inactive); with COLO 205 it was 29.9 µM (inactive); in the experiment with MCF7, 16.9 µM (inactive); with SK-MEL-5 it was 17.1 µM (inactive); in the experiment with SN12C, 13.6 µM (inactive).

Take `CCOC(=O)c1sc2c(c1O)c(=O)n(-c1ccccc1)c(=S)n2-c1ccccc1`: the GI50 in the experiment with IGROV-1, in the experiment with HCC 2998, with MDA-MB-231, with OVCAR-5, in the experiment with NCI-H460 and with NCI-H226 was > 100 µM (inactive) throughout. Also, the GI50 in the experiment on UACC-62 was 84.3 µM (inactive); in the experiment on Malme-3M, > 100 µM (inactive); in the experiment on SNB-19 it was > 100 µM (inactive); in the experiment on UACC-257 it was > 100 µM (inactive); with HCT-15, 78 µM; in the experiment on DU-145, 71.8 µM (inactive). The GI50 in the experiment with BT-549 was 56.6 µM (inactive); in the experiment on U-251 it was 76.6 µM (inactive); in the experiment on COLO 205, > 100 µM (inactive); in the experiment with MCF7 it was 67.6 µM (inactive); in the experiment with SR, 10.8 µM (inactive); in the experiment on SK-MEL-5, > 100 µM (inactive). In addition, the GI50 in the experiment with SN12C was 61.1 µM (inactive).

As to `Cc1n2nc(N)sc2n[n+]1Cc1ccccc1`, the GI50 in the experiment with IGROV-1 was 58.9 µM (inactive); in the experiment with PC-3, > 100 µM (inactive); with OVCAR-5, > 100 µM (inactive); in the experiment on NCI-H460 it was > 10 µM (inactive); with NCI-H226, > 100 µM (inactive); in the experiment with UACC-62 it was 47.4 µM (inactive). Moreover, the GI50 in the experiment with Malme-3M is > 100 µM (inactive); in the experiment on SNB-19 it was > 100 µM (inactive); in the experiment with UACC-257 it was > 100 µM (inactive); in the experiment on HCT-15, over 100 µM; in the experiment on DU-145, > 100 µM (inactive); in the experiment on BT-549 it was 74.6 µM (inactive). In addition, the GI50 in the experiment with U-251 was 77.3 µM (inactive); in the experiment with COLO 205, 21.4 µM (inactive); in the experiment with MCF7, > 100 µM (inactive); in the experiment with SK-MEL-5, 49.5 µM (inactive); with SN12C, > 100 µM (inactive).

As for `CC(=O)OCCn1cnc2nc(Nc3ccccc3)nc(Cl)c21`, the GI50 in the experiment on IGROV-1 was > 100 µM (inactive); with HCC 2998 it was 74.5 µM (inactive); with MDA-MB-231, 38.1 µM (inactive); in the experiment on PC-3 it was 62.7 µM (inactive); in the experiment on OVCAR-5 it was > 100 µM (inactive); with NCI-H460, 51.9 µM (inactive). The GI50 in the experiment with NCI-H226 is > 100 µM (inactive); in the experiment with UACC-62, 44.1 µM (inactive); with Malme-3M it was > 100 µM (inactive); with SNB-19, > 100 µM (inactive); with UACC-257 it was 76.9 µM (inactive); in the experiment with HCT-15 it was 45.4 µM. The GI50 in the experiment on DU-145 was > 100 µM (inactive); with U-251, 58.3 µM (inactive); with COLO 205, 47.5 µM (inactive); in the experiment with MCF7, 46.8 µM (inactive); in the experiment with SR, 54.8 µM (inactive); in the experiment on SK-MEL-5 it was 60.8 µM (inactive). In the experiment on SN12C, the GI50 is > 100 µM (inactive).

Turning to `COc1cc(S(=O)(=O)Nc2ccc(-c3csc(N4C(=O)C(Cl)C4c4ccccc4O)n3)cc2)ccc1Cl` (stereo unspecified), the GI50 in the experiment with IGROV-1 was 11.9 µM (inactive); in the experiment with HCC 2998, 15.1 µM (inactive); with PC-3, 42.3 µM (inactive); in the experiment with OVCAR-5 it was 47.8 µM (inactive); with NCI-H460, 47.5 µM (inactive); in the experiment with NCI-H226, 37.8 µM (inactive). For the same compound, the GI50 with UACC-62 is 17 µM (inactive); in the experiment on Malme-3M, 24.1 µM (inactive); with SNB-19 it was > 100 µM (inactive); with UACC-257 it was 29.1 µM (inactive); in the experiment with HCT-15, over 100 µM; in the experiment on DU-145, 14.3 µM (inactive). For the same compound, the GI50 with BT-549 was 29 µM (inactive); in the experiment with COLO 205, 23.9 µM (inactive); in the experiment with MCF7, 21 µM (inactive); in the experiment on SR, 4.82 µM (inactive); with SK-MEL-5, 37.1 µM (inactive); in the experiment on SN12C, 33.1 µM (inactive).

`O=C1Nc2c(Cl)cc(Cl)cc2/C1=N/NC(=O)c1ccccc1O`: the GI50 in the experiment on IGROV-1 is 12.3 µM (inactive); with HCC 2998, 16.7 µM (inactive); with MDA-MB-231, 15.6 µM (inactive); with PC-3 it was 14.8 µM (inactive); with OVCAR-5, 18.3 µM (inactive); in the experiment with NCI-H460, 13.5 µM (inactive). For the same compound, the GI50 with NCI-H226 was 14.8 µM (inactive); in the experiment on UACC-62, 12.1 µM (inactive); in the experiment with Malme-3M, 13.6 µM (inactive); in the experiment on SNB-19, 14.4 µM (inactive); in the experiment with UACC-257 it was 17.9 µM (inactive); with HCT-15, 14.8 µM. The GI50 in the experiment on BT-549 is 14.5 µM (inactive); with U-251 it was 8.51 µM (inactive); in the experiment on COLO 205, 22.3 µM (inactive); in the experiment with MCF7, 19.1 µM (inactive); in the experiment with SR, 5.4 µM (inactive); with SK-MEL-5, 14.8 µM (inactive). Also, in the experiment on SN12C, the GI50 was 16.7 µM (inactive).

Regarding `CC(C)(C)OC(=O)NCCNC(=O)OCc1ccccc1`, the GI50 in the experiment with IGROV-1, in the experiment with HCC 2998, in the experiment on PC-3, with OVCAR-5, with NCI-H460 and with NCI-H226 was > 100 µM (inactive) throughout. Further, the GI50 in the experiment on UACC-62 is > 100 µM (inactive); in the experiment with Malme-3M it was > 100 µM (inactive); with SNB-19 it was > 100 µM (inactive); in the experiment on UACC-257, > 100 µM (inactive); with HCT-15, over 100 µM; with DU-145 it was > 100 µM (inactive). The GI50 in the experiment on BT-549 is > 100 µM (inactive); in the experiment with U-251, > 100 µM (inactive); with COLO 205, > 100 µM (inactive); with MCF7, > 100 µM (inactive); with SR it was > 100 µM (inactive); in the experiment with SK-MEL-5 it was 50.6 µM (inactive). Besides, the GI50 in the experiment with SN12C was > 100 µM (inactive).
